# Experimental data from PMC3702004, “Comparison of Intake and Systemic Relative Effect Potencies of Dioxin-like Compounds in Female Mice after a Single Oral Dose” (Environmental Health Perspectives, 2013).
# Legend:
# [1] = toxic equivalency factor relative to TCDD; ref Van den Berg et al. 2006; cited from earlier work
# [2] = Body and organ weight, hepatic lipid content; assay type: in vivo, female C57BL/6 mice; settings: day 3; for % lipid / g liver: pooled liver samples
# Protocol: Animals. Eight-week-old female C57BL/6 mice (Harlan laboratories, Venray, the Netherlands) were randomly assigned to treatment groups (six animals per group) and allowed to acclimate for 1.5 weeks. The animals were housed in groups in standard cages and conditions (23 ± 2°C, 50–60% relative humidity, 12-hr dark/light cycle) with free access to food and water. Mice received a single dose of test compound by oral gavage at a dosing volume of 10 mL/kg body weight (BW). Mice treated with corn oil vehicle (10 mL/kg BW) served as controls. For each congener, five different doses were administered, ranging from 0.5–100 μg/kg BW (TCDD) to 5,000–500,000 µg/kg BW (PCB-153). Detailed information on doses is provided in Supplemental Material, Table S1 (http://dx.doi.org/10.1289/ehp.1206336). On day 3 after dosing, animals were euthanized by CO2/O2 asphyxiation, and blood was immediately collected from the abdominal aorta. The liver, thymus, spleen, and adipose tissue were removed, weighed (liver, thymus, and spleen), snap frozen, and stored at –80°C. All animal treatments were performed with permission of the Animal Ethical Committee (DEC Utrecht) and performed according to the [Law on Animal Experiments (1977)]. Animals were treated humanely and with regard for alleviation of suffering.
# Compound analysis. Adipose and liver tissues samples were homogenized in Na2SO4, followed by extraction and clean-up in one step, and then eluted with 200 mL 1:1 hexane:dichloromethane on an open column packed with 40% wt/wt H2SO4-impregnated silica and KOH-silica. Blood plasma samples were extracted on an open column using Chem-Elut (Agilent Technologies, Santa Clara, CA, USA) and then NaCl eluted with 75 mL 3:2 hexane:2-propanol. Clean-up was performed using a miniaturized silica column (as described above), and samples were eluted using 30 mL hexane. Because the samples typically contained high levels of the analytes, only a small fraction was evaporated and analyzed. Prior to evaporation, we spiked a fraction of the samples with ^13C-labeled standards. We checked potential loss of analytes during extraction and clean-up by reextracting the samples using the identical protocol used for the samples. […] Tetradecane was added prior to evaporation. Sample analysis followed the U.S. Environmental Protection Agency Method 1613 ([U.S. Environmental Protection Agency 1994]) using single ion monitoring mode on an Agilent 6809N gas chromatograph (Agilent Technologies) coupled with a Micromass Ultima Autospec Ultra high-resolution mass spectrometer (HRMS; Waters Corp., Milford, MA, USA). Compounds were separated on a 60 m × 0.25 mm DB5-MS column ([…]; J&W Scientific, Folsom, CA, USA). The HRMS was operated with electron impact ionization with electron energy of 35 eV and an ion source temperature of 250°C. To reduce the number of analyses, samples were pooled before clean-up. […] This method was used because full congener–specific separation could be achieved on the high-resolution GC–HRMS. For lipid determination, samples were evaporated to dryness after the extraction step, and the amount of lipids was determined gravimetrically. Concentrations were calculated based on lipid weight and wet weight. The analysis of samples for the PCB-118 5,000 μg/kg BW dose failed during the procedure; thus analysis for this group could not be completed.
# Statistical analysis. Statistical significant differences of the means and variances were determined using one-way analysis of variance (ANOVA) followed by Tukey-Kramer multiple comparisons. Differences were considered statistically significant at p < 0.05. Statistical calculations were performed using GraphPad 6.01 (GraphPad Software Inc.).
smiles,measurement,setting,value
"Clc1cc2c(cc1Cl)Oc1c(cc(Cl)c(Cl)c1Cl)O2 [PeCDD, 1,2,3,7,8-pentachlorodibenzodioxin]",WHO-TEF,[1],1
same,Body weight,[2]; oral dose 0.5 µg/kg bw,18.6 ± 1.3 gram
same,Liver weight,[2]; oral dose 0.5 µg/kg bw,4.56 ± 0.34 % of bw
same,Spleen weight,[2]; oral dose 0.5 µg/kg bw,0.30 ± 0.02 % of bw
same,Thymus weight,[2]; oral dose 0.5 µg/kg bw,0.21 ± 0.03 % of bw
same,% lipid / g liver,[2]; oral dose 0.5 µg/kg bw,4.7%
same,Body weight,[2]; oral dose 2.5 µg/kg bw,19.4 ± 1.1 gram
same,Liver weight,[2]; oral dose 2.5 µg/kg bw,5.02 ± 0.26 % of bw
same,Spleen weight,[2]; oral dose 2.5 µg/kg bw,0.31 ± 0.03 % of bw
same,Thymus weight,[2]; oral dose 2.5 µg/kg bw,0.29 ± 0.04 % of bw
same,% lipid / g liver,[2]; oral dose 2.5 µg/kg bw,6.0%
same,Body weight,[2]; oral dose 10 µg/kg bw,18.9 ± 1.2 gram
same,Liver weight,[2]; oral dose 10 µg/kg bw,5.32 ± 0.43 % of bw
same,Spleen weight,[2]; oral dose 10 µg/kg bw,0.32 ± 0.04 % of bw
same,Thymus weight,[2]; oral dose 10 µg/kg bw,0.23 ± 0.06 % of bw
same,% lipid / g liver,[2]; oral dose 10 µg/kg bw,6.2%
same,Body weight,[2]; oral dose 25 µg/kg bw,19.4 ± 1.5 gram
same,Liver weight,[2]; oral dose 25 µg/kg bw,5.26 ± 0.27 % of bw
same,Spleen weight,[2]; oral dose 25 µg/kg bw,0.32 ± 0.04 % of bw
same,Thymus weight,[2]; oral dose 25 µg/kg bw,0.26 ± 0.05 % of bw
same,Body weight,[2]; oral dose 100 µg/kg bw,18.8 ± 1.1 gram
same,Liver weight,[2]; oral dose 100 µg/kg bw,5.83 ± 0.50 % of bw
same,Spleen weight,[2]; oral dose 100 µg/kg bw,0.33 ± 0.04 % of bw
same,Thymus weight,[2]; oral dose 100 µg/kg bw,0.24 ± 0.05 % of bw
same,Dose with significant increase in liver weight vs vehicle controls,[2]; single oral dose,≥ 100 µg/kg BW
"Clc1cc2c(cc1Cl)Oc1cc(Cl)c(Cl)cc1O2 [TCDD, 2,3,7,8-tetrachlorodibenzodioxin, reference compound]",WHO-TEF,[1],1
same,Body weight,[2]; oral dose 0.5 µg/kg bw,19.3 ± 0.8 gram
same,Liver weight,[2]; oral dose 0.5 µg/kg bw,5.08 ± 0.27 % of bw
same,Spleen weight,[2]; oral dose 0.5 µg/kg bw,0.34 ± 0.05 % of bw
same,Thymus weight,[2]; oral dose 0.5 µg/kg bw,0.28 ± 0.06 % of bw
same,% lipid / g liver,[2]; oral dose 0.5 µg/kg bw,5.3%
same,Body weight,[2]; oral dose 2.5 µg/kg bw,19.2 ± 1.3 gram
same,Liver weight,[2]; oral dose 2.5 µg/kg bw,5.37 ± 0.20 % of bw
same,Spleen weight,[2]; oral dose 2.5 µg/kg bw,0.32 ± 0.05 % of bw
same,Thymus weight,[2]; oral dose 2.5 µg/kg bw,0.23 ± 0.05 % of bw
same,% lipid / g liver,[2]; oral dose 2.5 µg/kg bw,7.2%
same,Body weight,[2]; oral dose 10 µg/kg bw,18.8 ± 1.1 gram
same,Liver weight,[2]; oral dose 10 µg/kg bw,5.49 ± 0.37 % of bw
same,Spleen weight,[2]; oral dose 10 µg/kg bw,0.30 ± 0.04 % of bw
same,Thymus weight,[2]; oral dose 10 µg/kg bw,0.18 ± 0.06 % of bw
same,% lipid / g liver,[2]; oral dose 10 µg/kg bw,7.4%
same,Body weight,[2]; oral dose 25 µg/kg bw,19.6 ± 0.8 gram
same,Liver weight,[2]; oral dose 25 µg/kg bw,5.86 ± 0.22 % of bw
same,Spleen weight,[2]; oral dose 25 µg/kg bw,0.34 ± 0.02 % of bw
same,Thymus weight,[2]; oral dose 25 µg/kg bw,0.23 ± 0.02 % of bw
same,Body weight,[2]; oral dose 100 µg/kg bw,19.4 ± 0.6 gram
same,Liver weight,[2]; oral dose 100 µg/kg bw,6.09 ± 0.44 % of bw
same,Spleen weight,[2]; oral dose 100 µg/kg bw,0.34 ± 0.02 % of bw
same,Thymus weight,[2]; oral dose 100 µg/kg bw,0.19 ± 0.04 % of bw
same,Dose with significant increase in liver weight vs vehicle controls,[2]; single oral dose,≥ 10 µg/kg BW
same,Dose with statistically significant decrease in relative thymus weight vs vehicle controls,[2]; single oral dose,≥ 2.5 μg/kg BW
